Three molecules from ChEMBL document CHEMBL1201862, “PubChem BioAssay data set” (2004) can be followed below.

Assay [1] concerns the target T1, Small ubiquitin-related modifier 1 (Homo sapiens, UniProt P63165). Kind of assay: SUMO1 protein-protein binding blockers, potency – biochemical, FRET, dose response (AID 624383). In kind it is functional. The settings on record: read-out: IC50_Mean.
Assay [2] addresses DNA dC->dU-editing enzyme APOBEC-3G (Homo sapiens, UniProt Q9HC16). Kind of assay: Dose Response confirmation of small molecule APOBEC3G DNA Deaminase Inhibitors via a fluorescence-based single-stranded DNA deaminase assay. [Related pubchem assays (depositor defined):AID493012, AID493028]. In kind it is functional.
Assay [3] addresses T2, Apoptotic protease-activating factor 1 (Homo sapiens, UniProt O14727).
T2 sequence (O14727 whole entry): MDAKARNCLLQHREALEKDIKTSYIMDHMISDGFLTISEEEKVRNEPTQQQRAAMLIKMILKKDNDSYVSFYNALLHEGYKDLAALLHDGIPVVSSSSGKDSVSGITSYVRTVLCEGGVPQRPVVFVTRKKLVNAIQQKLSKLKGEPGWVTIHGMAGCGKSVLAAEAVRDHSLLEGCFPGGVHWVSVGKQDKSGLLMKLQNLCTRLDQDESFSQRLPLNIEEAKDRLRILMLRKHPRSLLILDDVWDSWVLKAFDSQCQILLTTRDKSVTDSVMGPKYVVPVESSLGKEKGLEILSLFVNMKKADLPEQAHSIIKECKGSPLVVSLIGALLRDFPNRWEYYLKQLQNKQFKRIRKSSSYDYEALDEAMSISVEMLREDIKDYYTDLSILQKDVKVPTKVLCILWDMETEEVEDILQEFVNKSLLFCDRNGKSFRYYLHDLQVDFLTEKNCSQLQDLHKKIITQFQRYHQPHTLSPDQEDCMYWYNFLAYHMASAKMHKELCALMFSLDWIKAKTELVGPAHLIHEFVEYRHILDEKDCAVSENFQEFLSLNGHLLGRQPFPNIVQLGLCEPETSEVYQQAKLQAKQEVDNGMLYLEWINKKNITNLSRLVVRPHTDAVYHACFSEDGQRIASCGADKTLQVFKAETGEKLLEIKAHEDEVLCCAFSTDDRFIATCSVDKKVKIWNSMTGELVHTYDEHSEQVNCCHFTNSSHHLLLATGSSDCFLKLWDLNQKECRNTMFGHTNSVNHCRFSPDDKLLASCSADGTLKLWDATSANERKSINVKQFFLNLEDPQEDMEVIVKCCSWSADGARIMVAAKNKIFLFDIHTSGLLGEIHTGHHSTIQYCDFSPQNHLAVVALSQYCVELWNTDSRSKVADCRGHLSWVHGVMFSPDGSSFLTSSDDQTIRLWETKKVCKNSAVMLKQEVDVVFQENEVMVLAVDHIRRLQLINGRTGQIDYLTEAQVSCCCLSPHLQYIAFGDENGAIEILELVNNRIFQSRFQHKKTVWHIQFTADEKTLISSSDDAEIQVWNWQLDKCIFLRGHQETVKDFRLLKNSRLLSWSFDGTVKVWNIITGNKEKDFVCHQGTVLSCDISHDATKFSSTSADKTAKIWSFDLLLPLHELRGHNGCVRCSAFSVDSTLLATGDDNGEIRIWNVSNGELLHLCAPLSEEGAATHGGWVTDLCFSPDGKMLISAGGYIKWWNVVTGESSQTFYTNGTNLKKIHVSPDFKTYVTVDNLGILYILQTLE
Kind of assay: activation of Apaf-1 mediated apoptosis – fluorescent, uHTS hits, dose response (AID 588554). Format: functional.

Assay [4] has as its target DNA dC->dU-editing enzyme APOBEC-3A (Homo sapiens, UniProt P31941). Kind of assay: A3A deaminase inhibition for selectivity – biochemical, dose response (AID 504722). In kind it is functional.
The target of assay [5] is T3, Voltage-gated N-type calcium channel alpha-1B subunit/Amyloid beta A4 precursor protein-binding family A member 1 (Homo sapiens, UniProt Q00975+Q02410). In kind it is protein assay.
The target of assay [6] is T3, Voltage-gated N-type calcium channel alpha-1B subunit/Amyloid beta A4 precursor protein-binding family A member 1. Format: protein assay. This is another data set of the same source.
The target of assay [7] is T1, Small ubiquitin-related modifier 1. Kind of assay: SUMO1 protein interaction blockers, potency – biochemical, fluorescence polarization, uHTS hits, dose response (AID 624382). The settings on record: read-out: IC50_Mean. Format: functional.
Assay [8] has as its target DNA (cytosine-5)-methyltransferase 1 (Homo sapiens, UniProt P26358). The assay can be described thus: inhibition of DNA methylation by DNMT1 – biochemical, fluorescent molecular beacon, confirmation (AID 602386). Format: functional.
Assay [9] has as its target Induced myeloid leukemia cell differentiation protein Mcl-1 (Homo sapiens, UniProt Q07820). Format: functional.
The target in assay [10] is Lysine-specific demethylase 4C (Homo sapiens, UniProt Q9H3R0). Kind of assay: inhibition of JMJD2C H3K9me3 demethylation – biochemical, DELFIA europium, cherry-picked samples, dose response (AID 488835). Format: functional.
Assay [11] deals with Sphingosine 1-phosphate receptor 3 (Homo sapiens, UniProt Q99500). Kind of assay: Late stage counterscreen assay for S1P4 antagonists: Fluorescence dose response cell-based screening assay for antagonists of the Sphingosine 1-Phosphate Receptor 3 (S1P3). [Related pubchem assays (depositor defined):AID1510, AID1524, AID1692, AID1853, AID2332, AID489009, AID489017]. Format: functional.

Assay [12] concerns the target Sphingosine 1-phosphate receptor 1 (Homo sapiens, UniProt P21453). Kind of assay: Late stage counterscreen assay for S1P4 antagonists: Fluorescence dose response cell-based screening assay for antagonists of the Sphingosine 1-Phosphate Receptor 1 (S1P1). [Related pubchem assays (depositor defined):AID1510, AID1524, AID1692, AID1853, AID2332, AID489009, AID489017]. Format: functional. For orientation: The purpose of a counterscreen is to sort out artefacts and off-target activity.

Assay [13] deals with Sphingosine 1-phosphate receptor 5 (Homo sapiens, UniProt Q9H228). The assay can be described thus: Late stage counterscreen assay for S1P4 antagonists: Fluorescence dose response cell-based screening assay for antagonists of the Sphingosine 1-Phosphate Receptor 5 (S1P5). [Related pubchem assays (depositor defined):AID1510, AID1524, AID1692, AID1853, AID2332, AID489009, AID489017]. In kind it is functional.

For assay [14], the target named is Sphingosine 1-phosphate receptor 2 (Homo sapiens, UniProt O95136). The assay can be described thus: Late stage counterscreen assay for S1P4 antagonists: Fluorescence dose response cell-based screening assay for antagonists of the Sphingosine 1-Phosphate Receptor 2 (S1P2). [Related pubchem assays (depositor defined):AID1510, AID1524, AID1692, AID1853, AID2332, AID489009, AID489017]. In kind it is functional.

As usually defined, the EC50 is the concentration needed to bring the measured effect to its halfway point. In general, AC50 refers to the concentration at which the activity in the assay is half-maximal.

Active and inactive are the calls of the source.

T1 sequence (P63165 whole entry): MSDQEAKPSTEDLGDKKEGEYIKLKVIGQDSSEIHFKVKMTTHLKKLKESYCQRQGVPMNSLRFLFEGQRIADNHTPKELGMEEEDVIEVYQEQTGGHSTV
T3 sequence (Q00975 whole entry): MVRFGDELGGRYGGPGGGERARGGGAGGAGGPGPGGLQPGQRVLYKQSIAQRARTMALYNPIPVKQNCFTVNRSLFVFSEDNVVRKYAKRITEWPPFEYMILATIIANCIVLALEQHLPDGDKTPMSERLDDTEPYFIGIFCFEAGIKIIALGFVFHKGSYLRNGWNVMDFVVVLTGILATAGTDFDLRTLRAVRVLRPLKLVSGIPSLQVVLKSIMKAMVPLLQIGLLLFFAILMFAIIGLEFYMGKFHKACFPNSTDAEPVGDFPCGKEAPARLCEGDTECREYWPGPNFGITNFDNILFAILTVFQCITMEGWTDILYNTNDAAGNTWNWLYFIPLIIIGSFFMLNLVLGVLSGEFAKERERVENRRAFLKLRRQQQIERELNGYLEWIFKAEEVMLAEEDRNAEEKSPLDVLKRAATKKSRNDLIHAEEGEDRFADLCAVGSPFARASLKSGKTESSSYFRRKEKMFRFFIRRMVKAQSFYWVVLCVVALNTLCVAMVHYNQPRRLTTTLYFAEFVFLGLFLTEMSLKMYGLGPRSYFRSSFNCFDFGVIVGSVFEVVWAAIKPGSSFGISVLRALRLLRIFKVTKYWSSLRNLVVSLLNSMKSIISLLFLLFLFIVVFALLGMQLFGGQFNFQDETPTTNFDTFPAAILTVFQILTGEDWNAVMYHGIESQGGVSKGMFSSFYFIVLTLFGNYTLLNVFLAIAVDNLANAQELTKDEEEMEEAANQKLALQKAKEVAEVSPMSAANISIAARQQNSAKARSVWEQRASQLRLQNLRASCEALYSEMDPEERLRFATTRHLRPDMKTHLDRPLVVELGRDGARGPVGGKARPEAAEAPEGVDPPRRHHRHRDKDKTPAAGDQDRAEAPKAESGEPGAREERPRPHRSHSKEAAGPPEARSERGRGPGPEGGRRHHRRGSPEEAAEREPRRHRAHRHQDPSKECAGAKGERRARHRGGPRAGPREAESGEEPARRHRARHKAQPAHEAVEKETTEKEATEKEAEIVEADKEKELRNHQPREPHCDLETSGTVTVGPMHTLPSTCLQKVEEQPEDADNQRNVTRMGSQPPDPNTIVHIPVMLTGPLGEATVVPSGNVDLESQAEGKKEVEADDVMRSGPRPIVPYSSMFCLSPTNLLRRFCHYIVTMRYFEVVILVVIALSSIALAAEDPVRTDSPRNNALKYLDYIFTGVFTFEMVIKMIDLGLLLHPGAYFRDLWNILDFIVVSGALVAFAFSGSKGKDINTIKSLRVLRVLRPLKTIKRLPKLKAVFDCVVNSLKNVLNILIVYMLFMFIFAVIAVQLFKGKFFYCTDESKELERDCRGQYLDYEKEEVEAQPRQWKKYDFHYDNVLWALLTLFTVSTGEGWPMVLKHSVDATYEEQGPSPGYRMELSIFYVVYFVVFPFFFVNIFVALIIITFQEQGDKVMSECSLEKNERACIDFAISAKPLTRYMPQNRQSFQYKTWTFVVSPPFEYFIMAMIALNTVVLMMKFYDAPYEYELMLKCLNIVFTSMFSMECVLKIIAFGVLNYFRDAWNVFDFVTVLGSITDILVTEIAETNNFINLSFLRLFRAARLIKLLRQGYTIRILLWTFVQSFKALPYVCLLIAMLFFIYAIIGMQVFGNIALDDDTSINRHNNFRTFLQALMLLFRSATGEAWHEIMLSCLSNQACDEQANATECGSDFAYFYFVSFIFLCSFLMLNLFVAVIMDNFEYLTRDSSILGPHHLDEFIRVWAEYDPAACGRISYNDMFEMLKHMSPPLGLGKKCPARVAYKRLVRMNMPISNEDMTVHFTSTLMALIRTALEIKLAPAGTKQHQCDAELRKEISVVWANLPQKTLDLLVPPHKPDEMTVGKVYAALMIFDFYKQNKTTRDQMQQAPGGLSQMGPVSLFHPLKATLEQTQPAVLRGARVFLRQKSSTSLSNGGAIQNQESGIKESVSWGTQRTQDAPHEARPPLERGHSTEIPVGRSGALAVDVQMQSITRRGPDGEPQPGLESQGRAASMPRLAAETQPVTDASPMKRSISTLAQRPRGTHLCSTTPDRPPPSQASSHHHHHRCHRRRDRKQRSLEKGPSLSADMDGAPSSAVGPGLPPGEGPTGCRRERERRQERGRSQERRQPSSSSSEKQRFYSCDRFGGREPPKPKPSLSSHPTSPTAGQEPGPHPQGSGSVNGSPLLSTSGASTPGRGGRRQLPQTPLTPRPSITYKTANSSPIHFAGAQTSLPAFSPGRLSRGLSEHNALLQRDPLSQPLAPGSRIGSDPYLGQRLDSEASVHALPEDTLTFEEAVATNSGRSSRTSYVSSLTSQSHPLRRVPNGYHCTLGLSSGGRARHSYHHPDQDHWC
T3 sequence (Q02410 whole entry): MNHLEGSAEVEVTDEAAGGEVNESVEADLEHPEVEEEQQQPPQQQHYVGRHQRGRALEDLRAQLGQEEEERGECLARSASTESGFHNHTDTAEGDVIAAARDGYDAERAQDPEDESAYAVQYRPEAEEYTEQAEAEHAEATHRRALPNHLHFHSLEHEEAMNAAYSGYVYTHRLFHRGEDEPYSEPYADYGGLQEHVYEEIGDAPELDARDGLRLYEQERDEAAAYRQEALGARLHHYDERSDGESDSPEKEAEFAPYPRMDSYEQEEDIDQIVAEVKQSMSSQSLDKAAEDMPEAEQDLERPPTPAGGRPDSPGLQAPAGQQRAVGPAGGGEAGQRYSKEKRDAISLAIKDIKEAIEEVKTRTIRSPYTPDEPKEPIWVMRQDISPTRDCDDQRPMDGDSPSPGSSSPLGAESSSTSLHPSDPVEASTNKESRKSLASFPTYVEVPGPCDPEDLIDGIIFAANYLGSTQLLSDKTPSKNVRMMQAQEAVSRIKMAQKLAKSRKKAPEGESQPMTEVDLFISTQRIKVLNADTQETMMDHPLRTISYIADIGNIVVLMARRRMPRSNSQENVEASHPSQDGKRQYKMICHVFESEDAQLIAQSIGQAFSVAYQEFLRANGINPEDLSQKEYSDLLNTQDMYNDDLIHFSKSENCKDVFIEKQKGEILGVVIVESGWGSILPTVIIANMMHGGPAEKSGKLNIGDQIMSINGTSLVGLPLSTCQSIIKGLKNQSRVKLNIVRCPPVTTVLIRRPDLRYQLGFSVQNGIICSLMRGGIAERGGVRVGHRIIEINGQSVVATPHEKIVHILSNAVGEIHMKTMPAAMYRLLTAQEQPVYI
Chain of Sphingosine 1-phosphate receptor 3 (Q99500 whole entry): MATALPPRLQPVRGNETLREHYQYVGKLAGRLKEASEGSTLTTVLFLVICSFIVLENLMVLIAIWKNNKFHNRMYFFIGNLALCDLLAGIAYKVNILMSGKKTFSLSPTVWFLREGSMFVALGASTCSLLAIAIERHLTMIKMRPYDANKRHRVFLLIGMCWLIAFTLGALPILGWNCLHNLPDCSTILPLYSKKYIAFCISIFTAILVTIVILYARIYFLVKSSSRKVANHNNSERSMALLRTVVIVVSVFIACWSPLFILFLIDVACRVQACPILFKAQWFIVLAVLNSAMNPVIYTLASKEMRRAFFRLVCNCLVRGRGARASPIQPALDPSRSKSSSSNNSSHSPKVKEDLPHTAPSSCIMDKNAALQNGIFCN
Chain of Sphingosine 1-phosphate receptor 5 (Q9H228 whole entry): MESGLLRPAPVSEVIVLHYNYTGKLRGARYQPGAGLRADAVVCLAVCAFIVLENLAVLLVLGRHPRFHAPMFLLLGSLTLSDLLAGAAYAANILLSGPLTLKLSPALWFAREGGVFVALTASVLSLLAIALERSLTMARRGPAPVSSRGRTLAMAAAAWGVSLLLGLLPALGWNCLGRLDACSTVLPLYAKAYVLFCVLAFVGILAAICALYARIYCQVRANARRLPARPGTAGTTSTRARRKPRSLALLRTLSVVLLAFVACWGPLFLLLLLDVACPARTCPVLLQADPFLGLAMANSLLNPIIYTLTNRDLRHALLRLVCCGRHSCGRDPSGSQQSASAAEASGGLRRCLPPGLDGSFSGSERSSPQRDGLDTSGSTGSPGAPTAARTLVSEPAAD
Chain of Sphingosine 1-phosphate receptor 1 (P21453 whole entry): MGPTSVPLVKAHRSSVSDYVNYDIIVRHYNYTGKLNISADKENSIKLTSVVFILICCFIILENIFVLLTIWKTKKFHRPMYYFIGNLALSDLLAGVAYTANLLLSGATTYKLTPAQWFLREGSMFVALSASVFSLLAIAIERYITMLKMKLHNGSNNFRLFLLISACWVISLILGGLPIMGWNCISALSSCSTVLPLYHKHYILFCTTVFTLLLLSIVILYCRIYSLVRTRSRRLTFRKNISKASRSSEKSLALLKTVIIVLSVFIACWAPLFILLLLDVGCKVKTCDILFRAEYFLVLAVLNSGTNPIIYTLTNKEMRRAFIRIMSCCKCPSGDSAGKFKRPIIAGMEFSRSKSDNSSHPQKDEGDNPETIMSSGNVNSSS
Chain of Induced myeloid leukemia cell differentiation protein Mcl-1 (Q07820 whole entry): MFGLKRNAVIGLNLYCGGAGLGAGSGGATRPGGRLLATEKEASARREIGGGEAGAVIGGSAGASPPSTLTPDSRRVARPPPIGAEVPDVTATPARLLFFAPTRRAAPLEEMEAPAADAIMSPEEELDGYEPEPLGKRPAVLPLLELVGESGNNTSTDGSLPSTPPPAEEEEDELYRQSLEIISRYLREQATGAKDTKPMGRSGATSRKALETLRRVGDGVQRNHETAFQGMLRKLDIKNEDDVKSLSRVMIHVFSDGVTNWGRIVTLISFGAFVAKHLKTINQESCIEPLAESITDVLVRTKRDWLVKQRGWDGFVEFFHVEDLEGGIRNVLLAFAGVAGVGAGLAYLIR
Chain of DNA dC->dU-editing enzyme APOBEC-3A (P31941 whole entry): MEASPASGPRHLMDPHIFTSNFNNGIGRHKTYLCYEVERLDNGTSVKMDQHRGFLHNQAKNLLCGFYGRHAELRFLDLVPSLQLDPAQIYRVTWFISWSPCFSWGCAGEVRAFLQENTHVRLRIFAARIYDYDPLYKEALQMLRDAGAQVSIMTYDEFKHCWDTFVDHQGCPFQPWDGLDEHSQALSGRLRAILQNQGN

On to `C=C(C)C(=O)Nc1cccc(C2=NOC3(C2)C[C@@H](C(N)=O)N(C(=O)/C=C/C=C/C)C3)c1` (some centres undefined), for which the IC50 in assay [1] is 1.72 µM (active); in [2] it was 3.41 µM (active); in assay [4], > 100 µM (inactive); in assay [5], 10 µM (active); in [6], 34.3 µM (active); in [7], > 66.6 µM (inactive). Besides, the values for the IC50 in [8] and in [9] were 3.25 µM (active) and 2.3 µM (active), respectively. For the same molecule, the EC50 in [3] was 1.17 µM (active).

Turning to `O=C(Nc1cc(S(=O)(=O)N2CCOCC2)ccc1N1CCCC1)c1ccc(F)cc1`, in assay [10], the AC50 is 20.1 µM (active).

Turning to `Cc1ccc(C)c(NC(=O)c2ccc(-c3cc(Cl)ccc3Cl)o2)c1`, the IC50 in assay [11], in [12], in assay [13] and in [14] was > 25 µM (inactive) each time.
